These results are taken from US20260167623A1 (NIKANG THERAPEUTICS, INC., priority 2022, published 2026).

SMILES strings stand for the structures.

The target of this assay is T1, CDK2 (Homo sapiens, UniProt P24941).
T1 construct: High-Throughput Measurement of Cellular Endogenous CDK2; endogenous in cells; host or cells: OVCAR3
Description: Inhibition of CDK2: phospho-Rb (S807/811) HTRF measurement in OVCAR3 cells, 24 h. Particulars: 24 h compound treatment, read-out: pRB_OVCAR3_24h. The assay is classed as cell-based. The procedure, abridged: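 OVCAR3 cells, seeded overnight, were exposed to compounds at 0.3 to 10,000 nM for 24 h, then lysed. Rb S807/811 phosphorylation read by HTRF (665/620 nm ratio) after 4 h detection at room temperature; data normalized to DMSO and IC50 from four-parameter logistic fit.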
On the technique in general: In TR-FRET formats the signal depends on donor and acceptor labels being close together.
With `CC(C)Oc1cnc(NC2CCN(S(=O)(=O)c3cccc(N4CCC(CN5CCC(c6ccc7c(N8CCC(=O)NC8=O)nn(C)c7c6)CC5)CC4)c3)CC2)nc1` [Example 253, 1-(6-(1-((1-(3-((4-((5-isopropoxypyrimidin-2-yl)amino)piperidin-1-yl)sulfonyl)phenyl)piperidin-4-yl)methyl)piperidin-4-yl)-1-methyl-1H-indazol-3-yl)dihydropyrimidine-2,4(1H,3H)-dione], the IC50 was greater than 2.5 µM.

As for `Cn1nc(N2CCC(=O)NC2=O)c2ccc(C3CCN(Cc4ccnc(S(=O)(=O)N5CCC(Nc6ncc(C(F)(F)F)cn6)CC5)c4)CC3)cc21` [Example 183, 1-(1-methyl-6-(1-((2-((4-((5-(trifluoromethyl)pyrimidin-2-yl)amino)piperidin-1-yl)sulfonyl)pyridin-4-yl)methyl)piperidin-4-yl)-1H-indazol-3-yl)dihydropyrimidine-2,4(1H,3H)-dione], the IC50 was in the range of 0.5 to 2.5 µM.

Regarding `O=C1CCC(N2Cc3cc(N4CCN(CC5CCN(c6cccc(S(=O)(=O)N7CCC(Nc8ncc(Cl)cn8)CC7)c6)CC5)CC4)ccc3C2=O)C(=O)N1` (stereo not drawn) [Example 98, 3-(5-(4-((1-(3-((4-((5-chloropyrimidin-2-yl)amino)piperidin-1-yl)sulfonyl)phenyl)-piperidin-4-yl)methyl)piperazin-1-yl)-1-oxoisoindolin-2-yl)piperidine-2,6-dione], the IC50 lay in the range of 0.1 to 0.5 µM.

As to `Cn1nc(N2CCC(=O)NC2=O)c2ccc(C3CCN(CC4CCN(c5cccc(S(=O)(=O)N6CC(Nc7ncc(C(F)(F)F)cn7)C6)c5)CC4)CC3)cc21` [Example 178, 1-(1-methyl-6-(1-((1-(3-((3-((5-(trifluoromethyl)pyrimidin-2-yl)amino)azetidin-1-yl)sulfonyl)phenyl)piperidin-4-yl)methyl)piperidin-4-yl)-1H-indazol-3-yl)dihydropyrimidine-2,4(1H,3H)-dione], the IC50 is greater than 2.5 µM.

Turning to `Cn1nc(C2CCC(=O)NC2=O)c2ccc(C3CCN(CC4CCN(c5cccc(S(=O)(=O)N6CCC(Nc7ncc(Cl)cn7)CC6)c5)CC4)CC3)cc21` (stereo not drawn) [Example 246, 3-(6-(1-((1-(3-((4-((5-chloropyrimidin-2-yl)amino)piperidin-1-yl)sulfonyl)phenyl)piperidin-4-yl)methyl)piperidin-4-yl)-1-methyl-1H-indazol-3-yl)piperidine-2,6-dione], the IC50 was in the range of 0.5 to 2.5 µM.

In the case of `O=C1CCC(N2Cc3cc(N4CCN(CC5CCN(c6cccc(S(=O)(=O)N7CCC(Nc8ncc(OC(F)F)cn8)CC7)c6)CC5)CC4)c(F)cc3C2=O)C(=O)N1` (stereo not drawn) [Example 106, 3-(5-(4-((1-(3-((4-((5-(difluoromethoxy)-pyrimidin-2-yl)amino)piperidin-1-yl)sulfonyl)phenyl)piperidin-4-yl)methyl)-piperazin-1-yl)-6-fluoro-1-oxoisoindolin-2-yl)piperidine-2,6-dione], the IC50 lay in the range of 0.1 to 0.5 µM.

As to `O=C1CCN(c2nn(CC(F)(F)F)c3cc(C4CCN(Cc5cccc(S(=O)(=O)N6CCC(Nc7ncc(Cl)cn7)CC6)c5)CC4)ccc23)C(=O)N1` [Example 21], the IC50 fell in the range of 0.5 to 2.5 µM.

Turning to `Cn1nc(N2CCC(=O)NC2=O)c2ccc(N3CC4CC(C3)N4CC3CCN(c4cccc(S(=O)(=O)N5CCC(Nc6ncc(C(F)(F)F)cn6)CC5)c4)CC3)cc21` [Example 126, 1-(1-methyl-6-(6-((1-(3-((4-((5-(trifluoro-methyl)pyrimidin-2-yl)amino)piperidin-1-yl)sulfonyl)phenyl)piperidin-4-yl)methyl)-3,6-diazabicyclo[3.1.1]heptan-3-yl)-1H-indazol-3-yl)dihydropyrimidine-2,4(1H,3H)-dione], the IC50 lay within 0.5 to 2.5 µM.

On to `Cn1nc(N2CCC(=O)NC2=O)c2ccc(C3CCN(CC4CCN(c5cccc(S(=O)(=O)N6CCC(Nc7ncc(Cl)cn7)CC6)c5F)CC4)CC3)cc21` [Example 187, 1-(6-(1-((1-(3-((4-((5-chloropyrimidin-2-yl)amino)piperidin-1-yl)sulfonyl)-2-fluorophenyl)piperidin-4-yl)methyl)piperidin-4-yl)-1-methyl-1H-indazol-3-yl)dihydropyrimidine-2,4(1H,3H)-dione], for which the IC50 was in the range of 0.1 to 0.5 µM.
